Source: patent US20230096766A1, “AMINO ACID HAVING FUNCTIONAL GROUP CAPABLE OF INTERMOLECULAR HYDROGEN BONDING, PEPTIDE COMPOUND CONTAINING SAME AND METHOD FOR PRODUCTION THEREOF” (Chugai Seiyaku Kabushiki Kaisha, priority 2018, published 2023)
*1 amine or outer side, *2 acyl side, *3 side chain or, on linkers, in order; H or OH if unused. Where a SMILES comes first, the peptide text is derived from it. Bridges are numbered along the chain shown (N, C = ends). [ ]: non-standard residue; d: D form. The star is where a group is joined. ξ: configuration not given here. X5 = O=C([C@H](CCC[C@@H]1CC(F)(F)CN1)N[*:1])[*:2]; Pro(4,4-F2)ψ(CH2) = FC1(F)CN[C@H](C*)C1; NMeF = CN[C@@H](Cc1ccccc1)C(=O)O; NMeGABA = CN(CCCC(=O)[*:2])[*:1]; NMeL = CN[C@@H](CC(C)C)C(=O)O; NMeV = CN[C@H](C(=O)O)C(C)C; ξIle = CC[C@H](C)C(N)C(=O)O; NMeAbu = CC[C@H](NC)C(=O)O; NMeA = CN[C@@H](C)C(=O)O; Piperidide = C1CCN(*)CC1; dAbu = CC[C@@H](N)C(=O)O; NBuGly = CCCCNCC(=O)O; ξNMeA = CNC(C)C(=O)O; Sar = CNCC(=O)O; tBu = CC(C)(C)*

Assay: Membrane permeability test of cyclic peptides (Caco-2, modified/improved method of WO 2018/124162)
Conditions: human, Caco-2, Caco-2 (membrane permeability), Table 10, cyclic peptides containing Ser(S-4-F2-Pyrro-Me) (G) or Nva(2-R-4-F2-Pyrro) (H)

Structure (SMILES) | Papp [×10⁻⁶ cm/s]
CCCCN1CC(=O)N(C)[C@@H](CC(C)C)C(=O)N[C@H](C(=O)N2CCCCC2)CC(=O)N(C)C(C)C(=O)N[C@@H](COC[C@@H]2CC(F)(F)CN2)C(=O)N(C)[C@@H](CC(C)C)C(=O)N(C)[C@@H](CC)C(=O)N[C@@H](C(C)C)C(=O)N(C)[C@@H](Cc2ccccc2)C(=O)N(C)[C@@H](CC(C)C)C(=O)N[C@@H]([C@@H](C)O)C1=O (stereo partly drawn) [Compound G05] ([ξNMeA]S(Pro(4,4-F2)ψ(CH2))[NMeL][NMeAbu]V[NMeF][NMeL]T[NBuGly][NMeL]D-Piperidide; lactam N-11) | 3.2
CCCCN1CC(=O)N(C)[C@@H](Cc2ccccc2)C(=O)N(C)[C@@H](CC(C)C)C(=O)N[C@@H](C(C)C)C(=O)N(C)[C@@H](CC(C)C)C(=O)N[C@H](C(=O)N2CCCCC2)CC(=O)N(C)CC(=O)N(C)[C@@H](CC(C)C)C(=O)N[C@@H](COC[C@@H]2CC(F)(F)CN2)C(=O)N(C)[C@@H](CC(C)C)C(=O)N[C@@H]([C@@H](C)O)C1=O [Compound G06] ([Sar][NMeL]S(Pro(4,4-F2)ψ(CH2))[NMeL]T[NBuGly][NMeF][NMeL]V[NMeL]D-Piperidide; lactam N-11) | 1.8
CCCCN1CC(=O)N(C)[C@@H](Cc2ccccc2)C(=O)N(C)[C@@H](CC(C)C)C(=O)N[C@@H](COC[C@@H]2CC(F)(F)CN2)C(=O)N(C)[C@@H](CC(C)C)C(=O)N[C@H](C(=O)N2CCCCC2)CC(=O)N(C)CC(=O)N(C)[C@@H](CC(C)C)C(=O)NC([C@@H](C)CC)C(=O)N(C)[C@@H](CC(C)C)C(=O)N[C@@H]([C@@H](C)O)C1=O (stereo partly drawn) [Compound G07] ([Sar][NMeL][ξIle][NMeL]T[NBuGly][NMeF][NMeL]S(Pro(4,4-F2)ψ(CH2))[NMeL]D-Piperidide; lactam N-11) | 0.57
CCCCN1CC(=O)N(C)[C@@H](CC(C)C)C(=O)N[C@@H](COC(C)(C)C)C(=O)N(C)[C@@H](Cc2ccccc2)C(=O)N(C)[C@@H](CC)C(=O)N[C@H](C(=O)N2CCCCC2)CC(=O)N[C@H](C)C(=O)N(C)[C@@H](CC)C(=O)N[C@@H](C(C)C)C(=O)N(C)[C@@H](CC(C)C)C(=O)N[C@@H](COC[C@@H]2CC(F)(F)CN2)C1=O [Compound G08] ([dA][NMeAbu]V[NMeL]S(Pro(4,4-F2)ψ(CH2))[NBuGly][NMeL]S(tBu)[NMeF][NMeAbu]D-Piperidide; lactam N-11) | 1.3
CC[C@H]1C(=O)N[C@@H](COC(C)(C)C)C(=O)N(C)[C@@H](CC(C)C)C(=O)N[C@@H](COC[C@@H]2CC(F)(F)CN2)C(=O)N(C)[C@@H](CC(C)C)C(=O)N(C)[C@@H](CC(C)C)C(=O)N[C@H](C(=O)N2CCCCC2)CC(=O)N(C)CCCC(=O)N(C)[C@@H](CC(C)C)C(=O)N[C@@H](C(C)C)C(=O)N(C)[C@@H](Cc2ccccc2)C(=O)N1C [Compound G09] ([NMeGABA][NMeL]V[NMeF][NMeAbu]S(tBu)[NMeL]S(Pro(4,4-F2)ψ(CH2))[NMeL][NMeL]D-Piperidide; lactam N-11) | 1.2
CC[C@H]1C(=O)N(C)[C@@H](Cc2ccccc2)C(=O)N[C@@H](CC(C)C)C(=O)N(C)[C@@H](CC(C)C)C(=O)N(C)[C@@H](CC(C)C)C(=O)N[C@@H](COC[C@@H]2CC(F)(F)CN2)C(=O)N(C)CC(=O)N(C)[C@@H](CC(C)C)C(=O)N[C@H](C(=O)N2CCCCC2)CC(=O)N(C)[C@@H](C)C(=O)N[C@@H](CC(C)C)C(=O)N1C [Compound G10] ([NMeA]L[NMeAbu][NMeF]L[NMeL][NMeL]S(Pro(4,4-F2)ψ(CH2))[Sar][NMeL]D-Piperidide; lactam N-11) | 1.1
CCCCN1CC(=O)N(C)[C@@H](Cc2ccccc2)C(=O)N(C)[C@@H](CC(C)C)C(=O)N[C@@H](CC(C)C)C(=O)N(C)[C@@H](CC(C)C)C(=O)N[C@H](C(=O)N2CCCCC2)CC(=O)N(C)CC(=O)N(C)[C@@H](CC)C(=O)N[C@@H](C(C)C)C(=O)N(C)[C@@H](CC)C(=O)N[C@@H](COC[C@@H]2CC(F)(F)CN2)C1=O [Compound G11] ([Sar][NMeAbu]V[NMeAbu]S(Pro(4,4-F2)ψ(CH2))[NBuGly][NMeF][NMeL]L[NMeL]D-Piperidide; lactam N-11) | 1.5
CCCCN1CC(=O)N(C)[C@@H](CC(C)C)C(=O)N[C@@H](CCC[C@@H]2CC(F)(F)CN2)C(=O)N(C)[C@@H](CC(C)C)C(=O)N(C)[C@@H](CC(C)C)C(=O)N[C@H](C(=O)N2CCCCC2)CC(=O)N[C@H](CC)C(=O)N(C)[C@@H](Cc2ccccc2)C(=O)N[C@@H](CC(C)C)C(=O)N(C)[C@@H](CC)C(=O)N[C@@H]([C@@H](C)O)C1=O [Compound H01] ([dAbu][NMeF]L[NMeAbu]T[NBuGly][NMeL][X5][NMeL][NMeL]D-Piperidide; lactam N-11) | 0.25
CCCCN1CC(=O)N(C)[C@@H](C)C(=O)N[C@@H](CCC[C@@H]2CC(F)(F)CN2)C(=O)N(C)[C@@H](Cc2ccccc2)C(=O)N(C)[C@@H](CC)C(=O)N[C@H](C(=O)N2CCCCC2)CC(=O)N[C@H](CC(C)C)C(=O)N(C)[C@@H](CC(C)C)C(=O)N[C@@H](C(C)C)C(=O)N(C)[C@@H](CC(C)C)C(=O)N[C@@H]([C@@H](C)O)C1=O [Compound H02] ([dL][NMeL]V[NMeL]T[NBuGly][NMeA][X5][NMeF][NMeAbu]D-Piperidide; lactam N-11) | 0.14
CC(C)C[C@H]1C(=O)N[C@@H](C(C)C)C(=O)N(C)[C@@H](Cc2ccccc2)C(=O)N(C)[C@@H](CC(C)C)C(=O)N[C@@H](CCC[C@@H]2CC(F)(F)CN2)C(=O)N(C)[C@@H](CC(C)C)C(=O)N[C@@H]([C@@H](C)O)C(=O)N(C)[C@@H](CC(C)C)C(=O)N(C)[C@@H](CC(C)C)C(=O)N[C@H](C(=O)N2CCCCC2)CC(=O)N(C)CCCC(=O)N1C [Compound H03] ([NMeGABA][NMeL]V[NMeF][NMeL][X5][NMeL]T[NMeL][NMeL]D-Piperidide; lactam N-11) | < 0.18
CCCCN1CC(=O)N(C)[C@@H](CC(C)C)C(=O)N[C@H](C(=O)N2CCCCC2)CC(=O)N(C)[C@@H](CC)C(=O)N[C@@H](CC(C)C)C(=O)N(C)[C@@H](CC(C)C)C(=O)N(C)[C@@H](Cc2ccccc2)C(=O)N[C@@H](CCC[C@@H]2CC(F)(F)CN2)C(=O)N(C)[C@@H](C)C(=O)N(C)[C@@H](CC(C)C)C(=O)N[C@@H]([C@@H](C)O)C1=O [Compound H04] ([NMeAbu]L[NMeL][NMeF][X5][NMeA][NMeL]T[NBuGly][NMeL]D-Piperidide; lactam N-11) | 0.93
CCCCN1CC(=O)N(C)[C@@H](CC(C)C)C(=O)N[C@H](C(=O)N2CCCCC2)CC(=O)N(C)[C@@H](C)C(=O)N[C@@H](CCC[C@@H]2CC(F)(F)CN2)C(=O)N(C)[C@@H](CC(C)C)C(=O)N(C)[C@@H](C)C(=O)N[C@@H](C(C)C)C(=O)N(C)[C@@H](Cc2ccccc2)C(=O)N(C)[C@@H](CC(C)C)C(=O)N[C@@H]([C@@H](C)O)C1=O [Compound H05] ([NMeA][X5][NMeL][NMeA]V[NMeF][NMeL]T[NBuGly][NMeL]D-Piperidide; lactam N-11) | 1.2
CCCCN1CC(=O)N(C)[C@@H](Cc2ccccc2)C(=O)N(C)[C@@H](CC(C)C)C(=O)N[C@@H](C(C)C)C(=O)N(C)[C@@H](CC(C)C)C(=O)N[C@H](C(=O)N2CCCCC2)CC(=O)N(C)CC(=O)N(C)[C@@H](C(C)C)C(=O)N[C@@H](CCC[C@@H]2CC(F)(F)CN2)C(=O)N(C)[C@@H](CC(C)C)C(=O)N[C@@H]([C@@H](C)O)C1=O [Compound H06] ([Sar][NMeV][X5][NMeL]T[NBuGly][NMeF][NMeL]V[NMeL]D-Piperidide; lactam N-11) | 0.27
CCCCN1CC(=O)N(C)[C@@H](Cc2ccccc2)C(=O)N(C)[C@@H](CC(C)C)C(=O)N[C@@H](CCC[C@@H]2CC(F)(F)CN2)C(=O)N(C)[C@@H](CC(C)C)C(=O)N[C@H](C(=O)N2CCCCC2)CC(=O)N(C)CC(=O)N(C)[C@@H](CC(C)C)C(=O)N[C@@H](C(C)C)C(=O)N(C)[C@@H](CC(C)C)C(=O)N[C@@H]([C@@H](C)O)C1=O [Compound H07] ([Sar][NMeL]V[NMeL]T[NBuGly][NMeF][NMeL][X5][NMeL]D-Piperidide; lactam N-11) | 0.16
CCCCN1CC(=O)N(C)[C@@H](CC(C)C)C(=O)N[C@@H](COC(C)(C)C)C(=O)N(C)[C@@H](Cc2ccccc2)C(=O)N(C)[C@@H](C)C(=O)N[C@H](C(=O)N2CCCCC2)CC(=O)N[C@H](C)C(=O)N(C)[C@@H](CC)C(=O)N[C@@H](C(C)C)C(=O)N(C)[C@@H](CC(C)C)C(=O)N[C@@H](CCC[C@@H]2CC(F)(F)CN2)C1=O [Compound H08] ([dA][NMeAbu]V[NMeL][X5][NBuGly][NMeL]S(tBu)[NMeF][NMeA]D-Piperidide; lactam N-11) | 0.92
CC(C)C[C@H]1C(=O)N[C@@H](C(C)C)C(=O)N(C)[C@@H](Cc2ccccc2)C(=O)N(C)[C@@H](C)C(=O)N[C@@H](COC(C)(C)C)C(=O)N(C)[C@@H](CC(C)C)C(=O)N[C@@H](CCC[C@@H]2CC(F)(F)CN2)C(=O)N(C)[C@@H](CC(C)C)C(=O)N(C)[C@@H](CC(C)C)C(=O)N[C@H](C(=O)N2CCCCC2)CC(=O)N(C)CCCC(=O)N1C [Compound H09] ([NMeGABA][NMeL]V[NMeF][NMeA]S(tBu)[NMeL][X5][NMeL][NMeL]D-Piperidide; lactam N-11) | 0.52
CC(C)C[C@@H]1NC(=O)[C@H](C)N(C)C(=O)C[C@@H](C(=O)N2CCCCC2)NC(=O)[C@H](CC(C)C)N(C)C(=O)CN(C)C(=O)[C@H](CCC[C@@H]2CC(F)(F)CN2)NC(=O)[C@H](CC(C)C)N(C)C(=O)[C@H](CC(C)C)N(C)C(=O)[C@H](CC(C)C)NC(=O)[C@H](Cc2ccccc2)N(C)C(=O)[C@H](C)N(C)C1=O [Compound H10] ([NMeA]L[NMeA][NMeF]L[NMeL][NMeL][X5][Sar][NMeL]D-Piperidide; lactam N-11) | 0.43
CCCCN1CC(=O)N(C)[C@@H](Cc2ccccc2)C(=O)N(C)[C@@H](CC(C)C)C(=O)N[C@@H](CC(C)C)C(=O)N(C)[C@@H](CC(C)C)C(=O)N[C@H](C(=O)N2CCCCC2)CC(=O)N(C)CC(=O)N(C)[C@@H](C)C(=O)N[C@@H](C(C)C)C(=O)N(C)[C@@H](CC)C(=O)N[C@@H](CCC[C@@H]2CC(F)(F)CN2)C1=O [Compound H11] ([Sar][NMeA]V[NMeAbu][X5][NBuGly][NMeF][NMeL]L[NMeL]D-Piperidide; lactam N-11) | 2
